Results reported in patent publication US20110152275A1, “AGENT FOR MAINTENANCE OF INDUCED REMISSION” (priority 2008, published 2011).

System: rat adjuvant-induced arthritis model
Experiment: Rat adjuvant-induced arthritis model
Assay type: in vivo
Conditions: for infiltration of inflammatory cells into the joint after switching from MTX: MTX 0th to 10th day then Compound 1 1 mg/kg to 24th day; for overall effect on the arthritis (summary): summary of leg volume results, injected and non-injected legs
Experimental: There were intracutaneously injected 0.05 mL (0.6 mg/animal) each of a suspension of killed M. butyricum (12 mg/mL) in liquid paraffin into the back of the right hind legs of 8-week-old female rats of LEW/CrlCrlj line (available from Japan Charles-River Co., Ltd.) to thus induce the arthritis (the 0th day). Then 0.5 mL (per body weight of 100 g) each of an agent solution prepared using a 0.5% methyl cellulose (0.5% MC) was orally administered to each of the test animals. To the adjuvant-injected control animal group, there was administered only the 0.5% MC. Methotrexate (MTX, available from Sigma Company) (0.1 mg/kg) was administered to each test animal, once a day, during the term extending from the 0th day to the 10th day, every day. On or after the 11th day, (R)-2-amino-5-[2-chloro-4-(3-trifluoro methylphenylthio)phenyl]-2-methyl-1-pentanol hydrochloride (hereunder simply referred to as “Compound 1”) (1 mg/kg) was administered to the test animals, instead of methotrexate, once a day up to the 24th day every day. The evaluation of the arthritis was carried out according to the following procedures: The volumes of the right and left hind legs of each test animal were determined on the 0th, 8th, 11th, 14th, 18th, 21st and 25th days of the testing period using a volume-determining meter (MK-550 available from Muromachi Machine, Co., Ltd.) and then the rate of increase in the volume of the hind leg was determined for each of the right and left hind legs of each individual test animal. Then there was prepared a pathological specimen (stained with hematoxylin eosin) of a joint extending from the distal end of the shinbone to the tarsalia to evaluate the degree of the infiltration of inflammatory cells into the joint.
In case of the adjuvant-induced arthritis, acute inflammation, whose far advanced stage is observed on around 3rd day, is recognized on the adjuvant-injected leg and thereafter it is once degenerated. Then the systemic inflammation due to the systemic immunological abnormality is initiated on about 10th day and as a result, the onset of arthritis is observed on the non-injected leg in parallel with the injected leg.

[1] = adjuvant-injected leg, MTX 0.1 mg/kg orally once a day, 0th to 10th day, observed 8th to 11th day, FIG. 1

## C[C@](N)(CO)CCCc1ccc(Sc2cccc(C(F)(F)F)c2)cc1Cl.Cl [Compound 1, (R)-2-amino-5-[2-chloro-4-(3-trifluoromethylphenylthio)phenyl]-2-methyl-1-pentanol hydrochloride]
adjuvant-injected leg, MTX 0.1 mg/kg 0th to 10th day, then Compound 1 1 mg/kg orally once a day 11th to 24th day, FIG. 1
  progress of the arthritis after switching from MTX: the progress of the arthritis was inhibited
Injected leg, pathological specimen, observed 25th day, FIG. 3E
  infiltration of inflammatory cells into the joint after switching from MTX: any infiltration of inflammatory cells into the joint was suppressed
non-injected leg, MTX 0.1 mg/kg 0th to 10th day, then Compound 1 1 mg/kg orally once a day 11th to 24th day, FIG. 2
  onset of the arthritis after switching from MTX: the onset of the arthritis was suppressed
non-injected legs, pathological specimen
  infiltration of inflammatory cells into the joint after switching from MTX: any infiltration of inflammatory cells into the joint was found to be suppressed
  overall effect on the arthritis (summary): could maintain the MTX-suppressed condition of the symptom of the arthritis

## CN(Cc1cnc2nc(N)nc(N)c2n1)c1ccc(C(=O)N[C@@H](CCC(=O)O)C(=O)O)cc1 [MTX, Methotrexate]
adjuvant-injected leg, MTX 0th to 10th day, discontinued on and after 11th day, FIG. 1
  symptom of arthritis after stopping administration: the symptom of arthritis was again advanced
[1]
  increase in the volume of the leg: there was not observed any increase in the volume of the leg
  progress of the arthritis: the progress of the arthritis was found to be inhibited
Injected leg, pathological specimen (hematoxylin eosin), MTX 0th to 10th day, observed 11th day, FIG. 3B
  infiltration of inflammatory cells into the joint: any infiltration of inflammatory cells into the joint was suppressed
Injected leg, pathological specimen, MTX 0th to 10th day then stopped, observed 25th day, FIG. 3D
  infiltration of inflammatory cells into the joint after stopping administration: the conspicuous infiltration of inflammatory cells into the joint was recognized
non-injected leg, MTX 0th to 10th day, discontinued on and after 11th day, FIG. 2
  arthritis after stopping administration: the arthritis was initiated when stopping the administration of MTX
non-injected leg, MTX 0.1 mg/kg orally 0th to 10th day, at the 11th day, FIG. 2
  onset of the arthritis: the onset of the arthritis in the non-injected leg was suppressed
  overall effect on the arthritis (summary): could suppress the onset and progress of arthritis, but the arthritis was immediately advanced when stopping the administration thereof
